Laboratory results reported in US6447775B1, “Modulators of expression and function of LRP in Alzheimer's disease” (The General Hospital Corporation, priority 1995, dated 2002).
Entries after “also recorded” stand apart in the source; their conditions may differ. Each block holds one molecule with its values, some of them ahead of it.

How the values were obtained:
[1] = tested on: LRP-expressing (MEF) cells; assay: Cellular internalization and degradation of 125I-labeled ligands by LRP-expressing mouse fibroblasts; format: cell-based
Description: (§1) Wells containing 2×10^5 LRP-expressing (MEF) or LRP-deficient (PEA13) cells were incubated with various concentrations (0.37-10 nM) of ^125I-APPs770 (Panels A and B) or 125I-APPs695 (Panels C and D) for 10 h at 37° C. in the absence of competitor (●) or in the presence of either 1 μM RAP (∘), or 100 μg/ml heparin (□). The cellular degradation of ^125I-labeled APPs770 by LRP-expressing MEF cells is shown in panel A and by LRP-deficient PEA13 cells in panel B. The cellular degradation of ^125I-APPs695 by LRP-expressing cells is depicted in panel C and by LRP-deficient cells in panel D. Plotted values represent means of duplicate determinations. Inset to panel B, autoradiogram of ^125I-labeled APPs770 (lane 1) and APPs695 (lane 2). The migration position of molecular mass standards are indicated on the right in kDa.
Wells containing 2×10^5 LRP-expressing (●) or LRP-deficient (∘) mouse fibroblasts were incubated with ^125I-LDL (8 μg/ml) or ^125I-α2M* (1.4 nM) for selected time intervals. […] Shown are the amounts of ^125I-LDL internalized (panel A) and degraded (panel B), ^125I-α2M* internalized (panel C) and degraded (panel D). The plotted values represent means of duplicate determinations.
Mouse fibroblasts (2×10^5 cells per well) were incubated for selected times with ^125I-APPs770 (1 nM) in the absence of competitor (●) or in the presence of either 1 μM RAP (∘), or 100 μg/ml heparin (□). The amount of radioactivity internalized and degraded was determined at the indicated time intervals. […] The plotted values are means of duplicate determinations.
Mouse fibroblasts (2×10^5 cells/well) were incubated for 18 h at 37° C. with ^125I-APPs770 (10 nM) in the absence of competitor or in the presence of either heparin (100 μg/ml), chloroquine (0.1 mM), RAP (1 μM), affinity purified anti-LRP IgG (100 μg/ml), or control IgG against the cytoplasmic domain of LRP (100 μg/ml). Panels show the amount of ^125I-APPs770 degraded by mouse fibroblasts expressing LRP (A) or ones deficient in LRP expression (B). The data shown are means of duplicate determinations±S. E.
Wells containing 2×10^5 LRP-expressing (MEF) or LRP-deficient (PEA13) cells were incubated with ^125I-APPs770 (5 nM) or ^125I-APPs770:FIXa (3 nM) for 18 h at 37° C. in the absence of competitor or in the presence of 1 μM RAP. The amount of ^125I-labeled APPs770 or ^125I-APPs770:Factor IXa degraded by LRP-expressing MEF cells is shown in panel A and that by LRP-deficient PEA13 cells in panel B. Plotted values represent means of duplicate determinations.
Mouse fibroblasts (2×10^5) were incubated for 18 h at 37° C. with ^125I-APP/PN-2 (8.8 nM) in the absence of competitor or in the presence of either RAP (1 μM)), 10 μg/ml apoE3/βVLDL, 10 μg/ml apoE4/βVLDL, or 10 μg/ml βVLDL. […]

[2] = tested on: LRP-deficient (PEA13) cells; assay: Cellular internalization and degradation of 125I-labeled ligands by LRP-deficient mouse fibroblasts; format: cell-based
Description: as §1
Wells containing 2×10^5 LRP-expressing (●) or LRP-deficient (∘) mouse fibroblasts were incubated with ^125I-LDL (8 μg/ml) or ^125I-α2M* (1.4 nM) for selected time intervals. […]
Mouse fibroblasts (2×10^5 cells per well) were incubated for selected times with ^125I-APPs770 (1 nM) in the absence of competitor (●) or in the presence of either 1 μM RAP (∘), or 100 μg/ml heparin (□). The amount of radioactivity internalized and degraded was determined at the indicated time intervals. […]

LRP = LRP (Homo sapiens, UniProt Q07954); assay: ELISA of LRP binding to APPs770 captured on zinc-coated wells; settings: LRP 25 nM, RAP 0.2-450 nM
Description: In panel A, zinc-coated wells (∘) or zinc-coated wells incubated with APPs770 (●) were incubated with the APPs770 monoclonal antibody 7H5. In panel B, increasing concentrations of LRP (0.14-300 nM) were incubated for 18 h at 4° C. with zinc-coated wells (∘) or zinc-coated wells with captured APPs770 (●). Panel C, LRP (25 nM) was incubated with zinc-coated wells (∘) or zinc-coated wells with captured APPs770 (●) in the presence of increasing concentrations of RAP (0.2-450 nM). Bound receptor was detected with the monoclonal LRP antibody 8G1. In the absence of LRP there was no binding of 8G1 IgG to APPs770-coated wells. Plotted values represent means of duplicate determinations.

LRP, sequence (Q07954 20-3943 limits assumed): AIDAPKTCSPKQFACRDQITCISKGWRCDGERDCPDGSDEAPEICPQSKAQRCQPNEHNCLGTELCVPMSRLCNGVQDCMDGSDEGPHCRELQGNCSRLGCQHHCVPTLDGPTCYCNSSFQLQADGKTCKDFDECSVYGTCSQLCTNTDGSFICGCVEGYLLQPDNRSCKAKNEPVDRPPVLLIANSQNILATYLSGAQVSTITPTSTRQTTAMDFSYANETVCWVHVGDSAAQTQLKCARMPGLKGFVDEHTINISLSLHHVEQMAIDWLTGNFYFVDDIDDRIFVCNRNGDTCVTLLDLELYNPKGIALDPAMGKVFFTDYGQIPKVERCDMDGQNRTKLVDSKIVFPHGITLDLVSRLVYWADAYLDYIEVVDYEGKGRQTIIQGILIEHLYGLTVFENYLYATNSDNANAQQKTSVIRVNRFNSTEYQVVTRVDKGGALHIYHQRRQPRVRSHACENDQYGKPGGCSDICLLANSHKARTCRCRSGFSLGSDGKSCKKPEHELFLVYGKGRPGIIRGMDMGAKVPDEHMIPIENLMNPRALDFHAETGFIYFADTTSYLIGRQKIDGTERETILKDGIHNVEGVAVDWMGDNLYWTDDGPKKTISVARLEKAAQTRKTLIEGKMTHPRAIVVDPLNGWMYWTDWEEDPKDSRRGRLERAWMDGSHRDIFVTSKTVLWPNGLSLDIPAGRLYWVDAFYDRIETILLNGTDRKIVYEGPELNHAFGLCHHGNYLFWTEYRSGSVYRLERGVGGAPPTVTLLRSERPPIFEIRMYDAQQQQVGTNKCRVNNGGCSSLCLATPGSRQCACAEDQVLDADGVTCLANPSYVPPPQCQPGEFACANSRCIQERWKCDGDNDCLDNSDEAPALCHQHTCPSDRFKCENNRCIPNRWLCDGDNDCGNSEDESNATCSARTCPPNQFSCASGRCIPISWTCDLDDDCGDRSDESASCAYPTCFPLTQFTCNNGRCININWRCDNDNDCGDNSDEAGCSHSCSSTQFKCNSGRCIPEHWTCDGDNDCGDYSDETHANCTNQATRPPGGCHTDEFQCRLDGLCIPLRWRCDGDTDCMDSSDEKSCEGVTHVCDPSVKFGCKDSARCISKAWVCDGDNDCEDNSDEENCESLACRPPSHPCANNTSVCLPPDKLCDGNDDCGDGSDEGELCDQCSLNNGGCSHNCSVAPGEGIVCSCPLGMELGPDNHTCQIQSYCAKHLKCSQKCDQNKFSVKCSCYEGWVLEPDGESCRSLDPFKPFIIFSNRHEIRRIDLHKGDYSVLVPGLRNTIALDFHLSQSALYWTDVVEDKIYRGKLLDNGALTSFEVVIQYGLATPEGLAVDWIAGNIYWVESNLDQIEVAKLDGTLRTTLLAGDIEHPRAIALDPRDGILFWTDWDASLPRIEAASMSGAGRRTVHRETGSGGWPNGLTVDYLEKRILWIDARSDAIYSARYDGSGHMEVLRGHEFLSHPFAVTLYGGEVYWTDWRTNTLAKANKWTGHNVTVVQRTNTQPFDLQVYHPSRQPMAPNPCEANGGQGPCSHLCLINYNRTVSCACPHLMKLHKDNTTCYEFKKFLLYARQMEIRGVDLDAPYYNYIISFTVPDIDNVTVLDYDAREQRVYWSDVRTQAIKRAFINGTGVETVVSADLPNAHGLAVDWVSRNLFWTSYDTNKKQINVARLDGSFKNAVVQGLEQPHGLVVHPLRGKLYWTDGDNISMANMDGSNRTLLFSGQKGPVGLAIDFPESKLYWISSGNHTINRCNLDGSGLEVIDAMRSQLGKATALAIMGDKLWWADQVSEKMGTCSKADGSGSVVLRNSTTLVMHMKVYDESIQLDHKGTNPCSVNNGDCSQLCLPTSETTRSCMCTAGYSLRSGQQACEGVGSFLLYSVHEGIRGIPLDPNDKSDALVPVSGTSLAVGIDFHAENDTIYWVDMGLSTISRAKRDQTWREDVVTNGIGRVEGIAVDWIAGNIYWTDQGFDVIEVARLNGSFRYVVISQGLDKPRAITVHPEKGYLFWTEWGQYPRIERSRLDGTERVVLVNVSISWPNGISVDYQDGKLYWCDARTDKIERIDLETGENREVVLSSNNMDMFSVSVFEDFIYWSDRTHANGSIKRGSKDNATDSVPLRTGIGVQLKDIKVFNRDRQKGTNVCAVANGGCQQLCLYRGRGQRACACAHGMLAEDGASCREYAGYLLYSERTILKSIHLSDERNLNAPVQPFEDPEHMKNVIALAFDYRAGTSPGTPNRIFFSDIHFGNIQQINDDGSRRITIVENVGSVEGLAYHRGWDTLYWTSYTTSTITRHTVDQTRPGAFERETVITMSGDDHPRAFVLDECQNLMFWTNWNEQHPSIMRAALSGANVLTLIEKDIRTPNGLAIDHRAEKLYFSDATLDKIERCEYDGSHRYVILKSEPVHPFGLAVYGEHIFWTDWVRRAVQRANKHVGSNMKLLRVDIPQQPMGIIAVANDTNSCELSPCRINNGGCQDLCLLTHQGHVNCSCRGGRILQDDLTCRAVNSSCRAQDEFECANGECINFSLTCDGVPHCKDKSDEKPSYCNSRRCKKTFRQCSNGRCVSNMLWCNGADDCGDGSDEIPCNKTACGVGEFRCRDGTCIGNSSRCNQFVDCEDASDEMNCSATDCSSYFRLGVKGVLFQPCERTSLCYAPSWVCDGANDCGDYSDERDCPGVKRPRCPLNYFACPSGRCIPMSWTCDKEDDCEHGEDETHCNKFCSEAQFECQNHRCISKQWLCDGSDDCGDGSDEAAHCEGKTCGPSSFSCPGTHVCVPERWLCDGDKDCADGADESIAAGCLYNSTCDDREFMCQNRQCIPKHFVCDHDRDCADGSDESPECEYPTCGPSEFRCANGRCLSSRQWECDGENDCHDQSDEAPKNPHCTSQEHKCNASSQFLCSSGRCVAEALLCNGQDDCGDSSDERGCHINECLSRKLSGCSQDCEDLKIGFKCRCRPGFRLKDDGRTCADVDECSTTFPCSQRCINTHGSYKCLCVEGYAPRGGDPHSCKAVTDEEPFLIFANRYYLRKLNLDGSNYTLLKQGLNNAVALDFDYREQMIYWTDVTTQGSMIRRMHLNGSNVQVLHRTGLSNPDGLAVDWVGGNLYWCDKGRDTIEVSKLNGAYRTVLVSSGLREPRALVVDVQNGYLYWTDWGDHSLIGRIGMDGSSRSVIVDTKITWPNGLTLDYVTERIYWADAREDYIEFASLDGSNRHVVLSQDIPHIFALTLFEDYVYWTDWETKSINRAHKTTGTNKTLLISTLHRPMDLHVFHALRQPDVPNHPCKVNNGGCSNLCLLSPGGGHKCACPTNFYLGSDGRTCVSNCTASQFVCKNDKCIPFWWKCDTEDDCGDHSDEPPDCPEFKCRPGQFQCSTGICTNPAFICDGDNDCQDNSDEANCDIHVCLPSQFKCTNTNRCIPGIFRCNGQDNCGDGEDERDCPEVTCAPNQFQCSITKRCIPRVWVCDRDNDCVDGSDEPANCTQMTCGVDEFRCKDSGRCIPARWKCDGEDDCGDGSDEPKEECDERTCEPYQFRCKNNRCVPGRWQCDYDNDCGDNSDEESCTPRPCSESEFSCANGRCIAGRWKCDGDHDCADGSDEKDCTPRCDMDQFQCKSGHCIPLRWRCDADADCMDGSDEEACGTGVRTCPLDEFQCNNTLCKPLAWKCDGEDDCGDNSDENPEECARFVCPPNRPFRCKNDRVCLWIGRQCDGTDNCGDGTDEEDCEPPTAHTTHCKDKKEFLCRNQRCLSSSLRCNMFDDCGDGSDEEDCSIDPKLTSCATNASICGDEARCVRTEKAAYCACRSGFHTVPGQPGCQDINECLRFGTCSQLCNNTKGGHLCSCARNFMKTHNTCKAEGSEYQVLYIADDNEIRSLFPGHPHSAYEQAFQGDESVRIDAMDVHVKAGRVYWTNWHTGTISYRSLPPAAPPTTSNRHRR
LRP, sequence (Q07954 3944-4544 partner limits assumed): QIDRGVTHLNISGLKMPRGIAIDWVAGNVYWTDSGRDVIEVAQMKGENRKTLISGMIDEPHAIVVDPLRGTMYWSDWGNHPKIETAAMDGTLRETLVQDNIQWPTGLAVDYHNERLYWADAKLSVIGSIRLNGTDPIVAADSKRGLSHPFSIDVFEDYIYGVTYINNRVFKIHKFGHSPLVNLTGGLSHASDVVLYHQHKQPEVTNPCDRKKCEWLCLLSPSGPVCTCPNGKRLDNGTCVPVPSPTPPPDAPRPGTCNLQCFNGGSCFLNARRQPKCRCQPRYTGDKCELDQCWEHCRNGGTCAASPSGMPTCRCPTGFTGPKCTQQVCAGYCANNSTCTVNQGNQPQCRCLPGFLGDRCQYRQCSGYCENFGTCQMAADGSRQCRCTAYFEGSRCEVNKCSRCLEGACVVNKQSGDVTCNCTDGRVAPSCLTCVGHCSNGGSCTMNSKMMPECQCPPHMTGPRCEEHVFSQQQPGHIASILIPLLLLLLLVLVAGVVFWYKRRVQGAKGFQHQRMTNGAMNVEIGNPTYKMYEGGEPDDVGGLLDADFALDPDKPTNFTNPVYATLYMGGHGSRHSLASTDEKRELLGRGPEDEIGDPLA

Molecule: heparin
inhibition of internalization of APP (125I-APPs770) ([1]; LRP-containing fibroblasts, 125I-APPs770 1 nM, heparin 100 μg/ml): inhibition of internalization of APP
inhibition of internalization of APP (125I-APPs770) ([2]; 125I-APPs770 1 nM, heparin 100 μg/ml): inhibition of internalization of APP

inhibition of APP binding to LRP (LRP): inhibition of APP binding
Molecule: RAP: 39 kDa receptor associated protein that binds members of the LDL receptor family and blocks their ligand binding capacity
inhibition of 125I-APPs770 degradation by apoE isoforms/βVLDL or RAP ([1]; 18 h at 37° C., 125I-APP/PN-2 8.8 nM, 10 μg/ml apoE/βVLDL or RAP 1 μM, F(4,15)=21.65, p=0.0001, p<0.05 vs βVLDL alone, RAP p<0.001): statistically significant
inhibition of catabolism/degradation of APP (125I-APPs770) by added competitor ([1]; LRP-containing fibroblasts, RAP 1 μM, anti-LRP IgG 100 μg/ml): inhibition of catabolism of APP; also recorded: inhibition of degradation

B1: α2-macroglobulin: 125I-labeled α2-macroglobulin, LRP ligand control (protein, UniProt P01023 24-1474, looked up)
Alpha-2-macroglobulin: SVSGKPQYMVLVPSLLHTETTEKGCVLLSYLNETVTVSASLESVRGNRSLFTDLEAENDVLHCVAFAVPKSSSNEEVMFLTVQVKGPTQEFKKRTTVMVKNEDSLVFVQTDKSIYKPGQTVKFRVVSMDENFHPLNELIPLVYIQDPKGNRIAQWQSFQLEGGLKQFSFPLSSEPFQGSYKVVVQKKSGGRTEHPFTVEEFVLPKFEVQVTVPKIITILEEEMNVSVCGLYTYGKPVPGHVTVSICRKYSDASDCHGEDSQAFCEKFSGQLNSHGCFYQQVKTKVFQLKRKEYEMKLHTEAQIQEEGTVVELTGRQSSEITRTITKLSFVKVDSHFRQGIPFFGQVRLVDGKGVPIPNKVIFIRGNEANYYSNATTDEHGLVQFSINTTNVMGTSLTVRVNYKDRSPCYGYQWVSEEHEEAHHTAYLVFSPSKSFVHLEPMSHELPCGHTQTVQAHYILNGGTLLGLKKLSFYYLIMAKGGIVRTGTHGLLVKQEDMKGHFSISIPVKSDIAPVARLLIYAVLPTGDVIGDSAKYDVENCLANKVDLSFSPSQSLPASHAHLRVTAAPQSVCALRAVDQSVLLMKPDAELSASSVYNLLPEKDLTGFPGPLNDQDNEDCINRHNVYINGITYTPVSSTNEKDMYSFLEDMGLKAFTNSKIRKPKMCPQLQQYEMHGPEGLRVGFYESDVMGRGHARLVHVEEPHTETVRKYFPETWIWDLVVVNSAGVAEVGVTVPDTITEWKAGAFCLSEDAGLGISSTASLRAFQPFFVELTMPYSVIRGEAFTLKATVLNYLPKCIRVSVQLEASPAFLAVPVEKEQAPHCICANGRQTVSWAVTPKSLGNVNFTVSAEALESQELCGTEVPSVPEHGRKDTVIKPLLVEPEGLEKETTFNSLLCPSGGEVSEELSLKLPPNVVEESARASVSVLGDILGSAMQNTQNLLQMPYGCGEQNMVLFAPNIYVLDYLNETQQLTPEIKSKAIGYLNTGYQRQLNYKHYDGSYSTFGERYGRNQGNTWLTAFVLKTFAQARAYIFIDEAHITQALIWLSQRQKDNGCFRSSGSLLNNAIKGGVEDEVTLSAYITIALLEIPLTVTHPVVRNALFCLESAWKTAQEGDHGSHVYTKALLAYAFALAGNQDKRKEVLKSLNEEAVKKDNSVHWERPQKPKAPVGHFYEPQAPSAEVEMTSYVLLAYLTAQPAPTSEDLTSATNIVKWITKQQNAQGGFSSTQDTVVALHALSKYGAATFTRTGKAAQVTIQSSGTFSSKFQVDNNNRLLLQQVSLPELPGEYSMKVTGEGCVYLQTSLKYNILPEKEEFPFALGVQTLPQTCDEPKAHTSFQISLSVSYTGSRSASNMAIVDVKMVSGFIPLKPTVKMLERSNHVSRTEVSSNHVLIYLDKVSNQTLSLFFTVLQDVPVRDLKPAIVKVYDYYETDEFAIAEYNAPCSKDLGNA
modifications: 125I label
notes: 125I-labeled α2-macroglobulin, LRP ligand control
catabolism (internalization and degradation) of 125I-labeled ligand by cells ([1]; LRP-containing fibroblasts, 37° C., no competitor): internalization and degradation
catabolism (internalization and degradation) of 125I-labeled ligand by cells ([2]; 37° C., no competitor): lack of both internalization and degradation
